Measured values from patent EP0485583B1, “USE OF TETRAHYDROISOQUINOLINE DERIVATIVES FOR PREPARING ANTITUMORAL DRUGS” (ROUSSEL-UCLAF, priority 1990, dated 1991).

These compounds were tested against T1, tyrosinekinase du récepteur de l'EGF (Epidermal Growth Factor) (Homo sapiens, UniProt P00533) (assay: Inhibition of EGF receptor tyrosine kinase (A431 cell membranes, 32P incorporation into poly(Glu, Ala, Tyr 6:3:1))). Settings: A431 cell membranes (ATCC CRL 1555); samples containing substrate poly(Glu, Ala, Tyr 6:3:1) and EGF; 15 minutes at 30°C; dilution series starting at 51 microgrammes/ml; read-out: CI₅₀ (converted).
T1 construct: On utilise des membranes de cellules A431 (ATCC CRL 1555) comme source de récepteurs de l'EGF; host or cells: A431 cell membranes
Format: biochemical
Protocol: Mesure de l'inhibition de la tyrosinekinase du récepteur de l'EGF (Epidermal Growth Factor).
Cette lignée cellulaire exprime à sa surface un grand nombre de récepteur de l'EGF qui possèdent une activité tyrosinekinase.
Ces cellules sont préincubées avec ou sans EGF (1000 nM) pendant 15 minutes et ajoutées au tampon HEPES (acide N-2-hydroxyéthyl-piperazine N'-2-éthanesulfonique) correspondant (avec ou sans EGP) et contenant des ions Mg²⁺ (10 mM) et Mn²⁺ (2 mM) 0,2 % de triton X-100, de l'orthovanadate de sodium (20 micromoles) et l'inhibiteur.
Des échantillons contenant ou ne contenant pas le substrat poly(Glu, Ala, Tyr 6 : 3 : 1) sont préparés. On initie la réaction par addition de [gamma³²P] ATP (32 micromoles). Après incubation pendant 15 minutes à 30°C les échantillons sont précipités à l'aide d'acide […] à 10 %, filtrés sur membrane Millipore ® et le ³²P incorporé est mesuré avec un compteur de scintillation liquide.

T1 sequence (P00533 25-1210): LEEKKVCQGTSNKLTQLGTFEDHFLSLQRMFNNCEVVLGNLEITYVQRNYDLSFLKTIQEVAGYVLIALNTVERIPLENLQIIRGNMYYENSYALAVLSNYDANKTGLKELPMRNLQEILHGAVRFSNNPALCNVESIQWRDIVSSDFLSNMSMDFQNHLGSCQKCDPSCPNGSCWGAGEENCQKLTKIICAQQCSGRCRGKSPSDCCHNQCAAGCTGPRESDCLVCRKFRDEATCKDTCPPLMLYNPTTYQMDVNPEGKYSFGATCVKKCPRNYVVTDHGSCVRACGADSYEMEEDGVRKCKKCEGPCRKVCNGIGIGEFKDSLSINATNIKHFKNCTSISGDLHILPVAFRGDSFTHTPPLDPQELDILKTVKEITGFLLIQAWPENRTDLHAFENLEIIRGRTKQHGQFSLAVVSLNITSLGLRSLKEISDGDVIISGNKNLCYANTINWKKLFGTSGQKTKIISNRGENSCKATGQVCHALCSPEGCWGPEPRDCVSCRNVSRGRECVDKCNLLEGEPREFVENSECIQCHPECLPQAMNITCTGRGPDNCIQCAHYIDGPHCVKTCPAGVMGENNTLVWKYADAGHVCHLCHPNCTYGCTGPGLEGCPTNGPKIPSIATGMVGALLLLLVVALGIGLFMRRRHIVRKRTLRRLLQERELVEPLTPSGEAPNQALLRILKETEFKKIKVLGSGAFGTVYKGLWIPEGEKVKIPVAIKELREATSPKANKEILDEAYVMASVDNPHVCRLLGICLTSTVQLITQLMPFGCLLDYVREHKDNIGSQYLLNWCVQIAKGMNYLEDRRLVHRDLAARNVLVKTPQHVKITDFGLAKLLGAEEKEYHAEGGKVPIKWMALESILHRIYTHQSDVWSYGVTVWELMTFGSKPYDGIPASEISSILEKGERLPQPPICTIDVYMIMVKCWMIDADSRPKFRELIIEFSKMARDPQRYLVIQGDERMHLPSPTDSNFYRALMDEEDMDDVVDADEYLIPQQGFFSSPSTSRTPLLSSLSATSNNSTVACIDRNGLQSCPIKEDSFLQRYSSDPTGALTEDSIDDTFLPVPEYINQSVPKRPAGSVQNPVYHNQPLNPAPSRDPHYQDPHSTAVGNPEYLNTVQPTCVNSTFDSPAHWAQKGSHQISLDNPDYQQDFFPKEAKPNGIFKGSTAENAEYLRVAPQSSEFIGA

IC50 [µM]	SMILES
8.06	Oc1ccc2[nH]c3c(c2c1)CCNC3Cc1ccc(O)c(O)c1 (stereo not drawn) [Produit B, 1,2-benzènediol 4-(2,3,4,9-tétrahydro 6-hydroxy-1H-pyrido[3,4-b]indol 1-yl) méthyl]
13.3	Oc1cc2c(cc1O)CC(Cc1ccccc1)NC2 (stereo not drawn) [Produit de l'exemple 1, Bromhydrate du 3-phénylméthyl 1,2,3,4-tétrahydro, isoquinoléïne 6,7-diol]

SMILES	IC50 [µM]
Oc1ccc(CC2NCCc3cc(O)c(O)cc32)cc1O (stereo not drawn) [Produit A, 1-[(3,4-dihydroxyphényl)méthyl] 1,2,3,4-tétrahydro isoquinoléïne 6,7-diol]	3.83
